Common to all, as to type: functional, cell-based
Assay [1] deals with OVCAR-3. The experiment in a line: Cytotoxicity against human OVCAR3 cells at 10 uM after 72 hrs by CellTiter 96 AQueous One Solution Cell Proliferation Assay.
Assay [2] deals with MDA-MB-231. Kind of assay: Cytotoxicity against human MDA-MB-231 cells at 10 uM after 72 hrs by CellTiter 96 AQueous One Solution Cell Proliferation Assay.
Assay [3] has as its system MDA-MB-435. The experiment in a line: Cytotoxicity against human MDA-MB-435 cells at 10 uM after 72 hrs by CellTiter 96 AQueous One Solution Cell Proliferation Assay.
Assay [4] concerns MDA-MB-435. The experiment in a line: Cytotoxicity against human MDA-MB-435 cells after 72 hrs by CellTiter 96 AQueous One Solution Cell Proliferation Assay. Particulars: MDA-MB-435, 72 h.
Assay [5] deals with OVCAR-3. Kind of assay: Cytotoxicity against human OVCAR3 cells after 72 hrs by CellTiter 96 AQueous One Solution Cell Proliferation Assay. The conditions noted are these: OVCAR-3, 72 h.
Assay [6] concerns MDA-MB-231. The experiment in a line: Cytotoxicity against human MDA-MB-231 cells after 72 hrs by CellTiter 96 AQueous One Solution Cell Proliferation Assay. The conditions noted are these: MDA-MB-231, 72 h.

Calls of active or inactive are those of the source. The rule behind the calls is not given here.

As to `CCCCCC[C@H](C)[C@@H](CCCCCCCCC(C)/C=C\C=C(/C)C(=O)N[C@@H](C)CO)OC(N)=O` (some centres undefined), the result in assay [1], in assay [2] and in assay [3] was inactive.
For `CC(=O)O[C@H]1C(=O)[C@@]2(C)[C@H]([C@H](OC(=O)c3ccccc3)[C@]3(O)C[C@H](OC(=O)[C@H](O)[C@@H](NC(=O)c4ccccc4)c4ccccc4)C(C)=C1C3(C)C)[C@]1(OC(C)=O)CO[C@@H]1C[C@@H]2O` [PACLITAXEL], the figures for the IC50 in assay [4], in assay [5] and in assay [6] were 3.1 nM, 7.5 nM and 2.6 nM, respectively.
On to `C=CCCCC[C@H](C)[C@@H](CCCCCCCCC(C)/C=C\C=C(/C)C(=O)N[C@@H](C)CO)OC(N)=O` (some centres undefined), for which the outcome in assay [1], in assay [2] and in assay [3] was inactive.

The values are drawn from ChEMBL document CHEMBL4196193, “Calothrixamides A and B from the Cultured Cyanobacterium Calothrix sp. UIC 10520” (J Nat Prod, 2018).
